TGI data for 20 compounds are collected here from PubChem BioAssay (NCI).

Assay in all cases: NCI anticancer screen, dose series, 48 h
Assay [1] relates to MDA-MB-231 breast.
Assay [2] relates to OVCAR-5 ovarian.
The subject of assay [3] is PC-3 prostate.
Assay [4] relates to HS 578T breast.
Assay [5] has as its system BT-549 breast.
The test system of assay [6] is RXF 393 renal.
Assay [7] has as its system SK-OV-3 ovarian.
Assay [8] has as its system KM12 colon.
Assay [9] concerns SNB-75 CNS.
The subject of assay [10] is SK-MEL-28 melanoma.

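Interpolation was linear, between the two tested concentrations surrounding the appropriate level; five concentrations were tested over 48 hours in 96-well plates. At the TGI there is no net growth.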 Bounds are passed on as bounds.

Consider `CC(C)(C)OC(=O)NC(Cc1cnc[nH]1)C(=O)N1CCCC1C(N)=O` (centres undefined), for which the TGI in [1] was greater than 100 µM; in [2], greater than 100 µM; in [3], greater than 100 µM; in assay [4] it was greater than 100 µM; in assay [5], greater than 100 µM; in [6], 92.3 µM. The TGI in [7], in assay [8], in assay [9] and in assay [10] was greater than 100 µM throughout.
As to `COc1cc2c(cc1OC)C1(c3ccccc3)CN(C2)Cc2cc(OC)c(OC)cc21`, the TGI was 53.8 µM in [1]; greater than 100 µM in [2]; greater than 100 µM in assay [3]; 75.5 µM in [4]; 80.1 µM in assay [5]; 60.3 µM in assay [6]. In addition, the TGI was greater than 100 µM in assay [7], greater than 100 µM in assay [8], 92.3 µM in assay [9] and greater than 100 µM in assay [10].
As for `CC1=CCC[C@@H]2[C@@](C)(Cc3cc(O)ccc3O)[C@H](C)CC[C@@]12C`, the TGI in assay [1] was found to be 30.2 µM; in assay [2], 28.3 µM; in assay [3], 14.1 µM; in assay [4], 20.6 µM; in [5], 13.1 µM; in assay [6], 17.1 µM. Moreover, the TGI in [7] is 26 µM; in assay [8], 16.4 µM; in assay [9] it was 17.9 µM; in assay [10], 25.5 µM.
As to `O=C(Nc1ccccc1C(=O)O)/C(=C/c1ccccc1)NC(=O)c1ccccc1`, the TGI in assay [1], in assay [2], in [3], in [4], in assay [5] and in assay [6] was greater than 100 µM each time. The TGI in assay [7], in [8], in [9] and in assay [10] was greater than 100 µM in each case.
As to `CC1C/C(=N\N(C)C)C(C#N)(C#N)C1(C#N)C#N` (centres undefined), the TGI in [1] was 1.32 µM; in [2], 48.5 µM; in assay [3], 47.2 µM; in assay [4], greater than 88.3 µM; in assay [5], 22.1 µM; in assay [6], 23.9 µM. Also, the TGI is greater than 67.3 µM in assay [7], greater than 31.6 µM in [8], 27 µM in assay [9] and greater than 78.6 µM in assay [10].
In the case of `CC1OC(OC2C(O)COC(OC3C(C)OC(OC4C(OC(=O)[C@]56CCC(C)(C)C[C@@H]5C5=CCC7[C@@]8(C)C[C@H](O)[C@H](OC9OC(CO)C(O)C(OC%10OC(CO)C(O)C(O)C%10O)C9O)[C@@](C)(CO)[C@@H]8CC[C@@]7(C)[C@]5(C)CC6)OCC(O)C4O)C(O)C3OC3OCC(O)C(O)C3O)C2O)C(O)C(O)C1O` (some centres undefined), the TGI in assay [1] came out at 8.87 µM; in assay [2], 22.8 µM; in assay [3], 16.1 µM; in [4] it was 34.8 µM; in [5] it was 25.8 µM; in assay [6] it was 21.6 µM. For the same compound, the TGI in [7] came to 29.4 µM; in [8], 33.5 µM; in [9] it was 30.9 µM; in assay [10] it was 5.17 µM.
As for `CC1(C)CN=C(Nc2ccc(Cl)cc2)S1`, the TGI in [1], in assay [2], in assay [3], in assay [4], in assay [5] and in assay [6] was greater than 100 µM each time. Besides, the TGI in assay [7], in [8], in [9] and in assay [10] was greater than 100 µM in each case.
With `CC(=O)O[C@H]1CC[C@@]2(C)C(=CC[C@@H]3[C@@H]2CC[C@]2(C)C(=N/O)/C(=C/c4ccc([N+](=O)[O-])cc4)C[C@@H]32)C1`, the TGI was 50.1 µM in assay [1]; greater than 100 µM in assay [3]; 8.46 µM in assay [4]; 14 µM in [5]; greater than 100 µM in [6]; greater than 100 µM in assay [7]. Moreover, the TGI in assay [8] is greater than 100 µM; in [9], 40.5 µM; in [10], greater than 100 µM.
`Cc1cc2c(cc1C)[n+](=O)c(N1CCN(c3ccc([N+](=O)[O-])cc3)CC1)c(C#N)n2[O-]`: the TGI is 78.1 µM in assay [1]; greater than 100 µM in [2]; greater than 100 µM in [3]; greater than 100 µM in assay [4]; greater than 100 µM in assay [5]; 29.9 µM in assay [6]. For the same compound, the TGI was 30.9 µM in assay [7], greater than 100 µM in assay [8], 21.7 µM in assay [9] and greater than 100 µM in [10].
On to `COC(=O)/C=C1/N=C(N(C)/N=C/c2ccccc2)NC1=O`, for which the TGI in assay [1], in assay [2], in [3], in assay [4], in assay [5] and in assay [6] was greater than 100 µM in each case. The TGI in assay [7], in [8], in assay [9] and in assay [10] was greater than 100 µM throughout.
For the compound `O=C(N/N=C1/C(=O)c2c3ccccc3cc3cccc1c23)c1cccc(Cl)c1`, the TGI was greater than 100 µM in assay [1]; greater than 100 µM in assay [2]; greater than 100 µM in [3]; 67.2 µM in assay [4]; greater than 100 µM in [5]; greater than 100 µM in [6]. Moreover, the TGI in assay [7], in assay [8], in assay [9] and in [10] was greater than 100 µM throughout.
Turning to `Cc1ccc2c(c1)[nH]c(=S)n2C=C1C(=O)CC(C)(C)CC1=O`, the TGI in assay [1], in assay [2], in assay [3], in [4], in [5] and in assay [6] was greater than 100 µM each time. Moreover, the TGI in assay [7], in assay [8], in [9] and in assay [10] was greater than 100 µM each time.
For `Cc1c[nH]c(C(=O)O)c1-c1ccc2c(-c3ccccc3)nc3ccccc3n12`, the TGI was 95 µM in [1]; greater than 100 µM in assay [2]; greater than 100 µM in assay [3]; 67.3 µM in assay [4]; greater than 100 µM in assay [5]; 55.2 µM in assay [6]. Further, the TGI in assay [7] is greater than 100 µM; in assay [8], 56.8 µM; in [9], 56.4 µM; in assay [10] it was 76.3 µM.
In the case of `CN(C)C=Nc1cccc2cnccc12`, the TGI in [1], in [2], in [3], in assay [4], in assay [5] and in [6] was greater than 100 µM throughout. Besides, the TGI in assay [7], in assay [9] and in [10] was greater than 100 µM in each case.
With `CC(=O)NCCc1c[nH]c2ccc(Cl)cc12`, the TGI in [1], in [2], in assay [3], in [4], in assay [5] and in assay [6] was greater than 100 µM in each case. Besides, the TGI in assay [7], in assay [8], in [9] and in assay [10] was greater than 100 µM each time.
On to `O=C(CCc1ccc(O)c(O)c1)NCCc1cc(OCc2ccccc2)cc(OCc2ccccc2)c1`, for which the TGI in assay [1] is 48.8 µM; in assay [2], 30.1 µM; in assay [3], 29.8 µM; in assay [4], 40.2 µM; in assay [5] it was 20.2 µM; in [6], 36.8 µM. Further, the TGI amounted to 31.3 µM in assay [7], 34.7 µM in assay [8], 22.2 µM in assay [9] and 46.3 µM in assay [10].
Turning to `CN(C)CCNC(=O)c1cccc2nc3cccc(F)c3nc12`, the TGI was 6.77 µM in assay [1]; 7.06 µM in assay [2]; 4.26 µM in assay [3]; 9.27 µM in assay [4]; 11.4 µM in assay [5]; 4.11 µM in assay [6]. Moreover, the TGI in assay [8] turned out to be 8.43 µM; in [9], 13.2 µM; in [10], 11.5 µM.
With `Cc1c(C(=O)O)c2cc3ccccc3cc2c(=O)n1C`, the TGI in [1], in [2], in [3], in assay [4], in assay [5] and in assay [6] was greater than 10 µM in each case. Further, the TGI in assay [7], in assay [8] and in assay [9] was greater than 10 µM each time.
Take `CCCCNC(=O)Nc1c(C(N)=O)c2n(c1C(=O)OCC)CCCCC2`: the TGI in [1] was 58.4 µM; in [3], greater than 100 µM; in assay [4] it was greater than 100 µM; in assay [5], greater than 100 µM; in [6] it was greater than 100 µM; in [7], greater than 100 µM. The TGI in assay [8], in assay [9] and in assay [10] was greater than 100 µM in each case.
Regarding `O=P1(Oc2ccc(Cl)cc2)OCCS1` (centres undefined), the TGI in assay [1], in assay [2], in assay [3], in assay [4], in assay [5] and in assay [6] was greater than 100 µM throughout. Also, the TGI in [7], in assay [9] and in assay [10] was greater than 100 µM in each case.
